The values below are quoted from earlier work in US20200016283A1, “COMBINATION THERAPY COMPRISING A RADIOPHARMACEUTICAL AND A DNA-REPAIR INHIBITOR” (Bayer AS, priority 2017, published 2020).

The conditions of the data set: complexed at ambient temperature in aqueous solutions.

With `Cn1ccc(C(=O)NCCN(CCNC(=O)c2ccn(C)c(=O)c2O)CC(Cc2ccc(CC(=O)CCC(=O)O)cc2)CN(CCNC(=O)c2ccn(C)c(=O)c2O)CCNC(=O)c2ccn(C)c(=O)c2O)c(O)c1=O` [IV′], the “Stability of the Th-227 complex” value is reported as “highly stable”.
